Target: EGFR (UniProt P00533)
Settings: concentration not given here

EGFR, sequence (P00533 whole entry, looked up): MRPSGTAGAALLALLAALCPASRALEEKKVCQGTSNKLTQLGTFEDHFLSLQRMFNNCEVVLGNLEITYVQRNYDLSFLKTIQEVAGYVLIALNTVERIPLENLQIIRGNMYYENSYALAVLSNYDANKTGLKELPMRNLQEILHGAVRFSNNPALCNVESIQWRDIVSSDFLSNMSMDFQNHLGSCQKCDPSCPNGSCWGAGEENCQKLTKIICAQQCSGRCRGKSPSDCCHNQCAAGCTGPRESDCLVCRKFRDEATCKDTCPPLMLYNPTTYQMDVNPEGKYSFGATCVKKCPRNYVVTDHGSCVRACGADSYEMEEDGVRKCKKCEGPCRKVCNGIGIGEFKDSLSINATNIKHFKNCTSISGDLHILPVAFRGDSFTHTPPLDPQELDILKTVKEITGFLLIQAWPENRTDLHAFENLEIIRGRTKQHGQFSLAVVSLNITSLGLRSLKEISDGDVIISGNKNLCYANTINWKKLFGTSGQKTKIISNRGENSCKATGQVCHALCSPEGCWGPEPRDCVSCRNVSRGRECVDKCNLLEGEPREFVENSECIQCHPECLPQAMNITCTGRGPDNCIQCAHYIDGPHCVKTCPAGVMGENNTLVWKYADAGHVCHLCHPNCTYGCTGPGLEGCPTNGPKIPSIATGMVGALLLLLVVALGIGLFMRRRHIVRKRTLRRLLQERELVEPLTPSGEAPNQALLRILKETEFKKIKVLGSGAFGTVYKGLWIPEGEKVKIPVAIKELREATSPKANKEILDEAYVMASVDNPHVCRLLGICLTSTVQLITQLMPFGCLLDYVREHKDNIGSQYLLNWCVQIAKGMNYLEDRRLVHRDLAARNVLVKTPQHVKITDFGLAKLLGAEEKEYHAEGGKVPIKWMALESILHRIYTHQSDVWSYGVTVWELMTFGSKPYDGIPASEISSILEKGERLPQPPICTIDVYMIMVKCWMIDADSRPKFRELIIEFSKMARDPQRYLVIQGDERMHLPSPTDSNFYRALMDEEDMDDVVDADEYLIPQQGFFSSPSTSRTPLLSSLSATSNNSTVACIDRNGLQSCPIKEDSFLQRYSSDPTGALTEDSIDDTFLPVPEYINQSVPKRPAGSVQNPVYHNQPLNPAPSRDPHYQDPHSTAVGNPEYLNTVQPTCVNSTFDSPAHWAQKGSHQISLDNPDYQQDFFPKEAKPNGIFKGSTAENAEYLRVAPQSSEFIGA

`COc1cc(N)c(C(=N)Nc2ccc(F)c(Cl)c2)cc1OC` and `COc1cc2ncnc(Nc3cccc(Cl)c3)c2cc1OC` cannot be ordered by inhibition: < 50% for the first, 10% for the second.

For `COc1cc(N)c(C(=O)Nc2cccc(Br)c2)c(OC)c1OC`, the inhibition was < 50%.

Target: EGFR (human) (UniProt P00533)
Settings: a431

EGFR (human), sequence (P00533 whole entry, looked up): as above

Going from `COc1cc(N)c(C(=O)Nc2ccc(F)c(Cl)c2)cc1OC` to `COc1cc(N)c(C(=N)Nc2ccc(F)c(Cl)c2)cc1OC`, the IC50 falls from > 1000 µM to 200 µM. The second is the more potent here.

`COc1cc(N)c(C(=O)Nc2ccccn2)cc1OC` and `COc1cc(N)c(C(=O)Nc2cccnc2)cc1OC` cannot be ordered by IC50: > 1000 µM for the first, > 1000 µM for the second.

Going from `COc1cc(N)c(C(=N)Nc2cccc(Cl)c2)cc1OC` to `COc1cc(N)c(C(=N)Nc2cccc(Br)c2)cc1OC`, the IC50 falls from 460 µM to 300 µM (1.5-fold).

First: COc1cc(N)c(C(=O)Nc2ccncc2)cc1OC
Second: COc1cc(N)c(C(=O)Nc2cccc(Br)c2)cc1OC
The IC50 of the first is higher: > 1000 µM for the first, 340 µM for the second.

First: COc1cc(N)c(C(=O)NC(C)c2ccccc2)cc1OC (stereo unspecified)
Second: COc1cccc(NC(=O)c2cc(OC)c(OC)cc2N)c1
The IC50 of the first is higher: > 1000 µM for the first, 200 µM for the second. The second is the more potent here.

Going from `COc1cc2c(cc1OC)C(Nc1cccc(Br)c1)=NC(C)(C)N2` to `COc1cc2c(cc1OC)C(Nc1cccc(Cl)c1)=NC(C)(C)N2`, the IC50 rises from 130 µM to 200 µM (1.5-fold). The first is the more potent here.

Going from `COc1cc(N)c(C(=O)NC2CCCCC2)cc1OC` to `COc1cc(N)c(C(=O)Nc2cccc(C(F)(F)F)c2)cc1OC`, the IC50 falls from > 1000 µM to 470 µM. The second is the more potent here.

`COc1cccc(NC(=N)c2cc(OC)c(OC)cc2N)c1` and `COc1cccc(NC2=NC(C)(C)Nc3cc(OC)c(OC)cc32)c1` are within 1.5-fold of each other in IC50: 340 µM for the first, 320 µM for the second.

Going from `COc1cc(N)c(C(=O)Nc2cccc(Br)c2)c(OC)c1OC` to `COc1cc2c(cc1OC)C(Nc1ccc(F)c(Cl)c1)=NC(C)(C)N2`, the IC50 falls from 920 µM to 90 µM (10-fold). The second is the more potent here.

From the Kinase Knowledgebase extract (Sharma et al. 2016)
